The source of these data is patent publication EP0745083B1, “2-HETEROARYL-5,11-DIHYDRO-6H-DIPYRIDO [3,2-b:2',3'-e][1,4]DIAZEPINES AND THEIR USE IN THE PREVENTION OR TREATMENT OF HIV INFECTION” (BOEHRINGER INGELHEIM PHARMACEUTICALS INC., priority 1994, dated 1995).

Common to all, as to type: biochemical, Human Immunodeficiency Virus (HIV-1)
The target of one assay is T1, HIV-1 RT Y188L (Human immunodeficiency virus type 1 group M subtype B, UniProt P03367, Y787L).
T1 construct: effective against the reverse transcriptase of many mutant viruses; made in house
Briefly: Reverse Transcriptase (RT) Assay, Y188L mutant enzyme. As to conditions: 1 µM compound.

The target in assay [1] is T2, HIV-1 RT wild type (WT) enzyme (Human immunodeficiency virus type 1 group M subtype B, UniProt P03367).
T2 construct: Reverse transcriptase enzyme from the LAV strain of Human Immunodeficiency Virus (HIV-1) (1) was isolated from the bacterial strain JM109; made in house; host or cells: E. coli JM109 (clone pBRTprt1+ in vector pIBI21, lac promoter)
Briefly: Reverse Transcriptase (RT) Assay, wild type enzyme (RNA-dependent DNA polymerase activity). The conditions noted are these: 1 µM compound; for inhibition at 1 µM: read-out: Reverse Transciptase Assay % inhibition (1 µM) WT. The text has this: Utilizing the Reverse Transcriptase (RT) Assay described below, compounds can be tested for their ability to inhibit the RNA-dependent DNA polymerase activity of HIV-1 RT. Certain specific compounds described in the Examples which appear below, were so tested.
(§1) Among the enzymes for which Human Immunodeficiency Virus (HIV-1) encodes is a reverse transcriptase (1), so-named because it transcribes a DNA copy from an RNA template. This activity can be quantitatively measured in a cell-free enzyme assay, which has been previously described (2), and is based upon the observation that reverse transcriptase is able to use a synthetic template [poly r(C) primed with oligo d(G)] to transcribe a radio-labelled, acid-precipitable DNA strand utilizing ^3H-dGTP as a substrate. The assay described below utilizes the wild type (WT) enzyme, which is the predominant form of the enzyme observed in patients infected with HIV-1. Utilization of mutant RT eraymes (Y181C and Y181L, prepared by site-directed mutagenesis in which the tyrosine residue at codon 181 has been replaced by a cysteine or a leucine residue, respectively) and analogous assay conditions allows compounds to be evaluated for their effectiveness at inhibiting these mutant enzymes.
Reverse transcriptase enzyme from the LAV strain of Human Immunodeficiency Virus (HIV-1) (1) was isolated from the bacterial strain JM109 (3) expressing the DNA clone pBRTprt1+ (2) which is under the control of the lac promotor in the expression vector pIBI21 (4). An overnight culture grown in 2XYT medium (37°C, 225 rpm) (5) supplemented with 100 µg/mL ampicillin for positive selection is inoculated at a 1:40 dilution into M9 medium supplemented with 10µg/mL thiamine, 0.5% casamino acids, and 50 µg/mL ampicillin (5). The culture is incubated (37°C, 225 rpm) until it reaches an OD540 of 0.3-0.4. At that time the repressor inhibitor IPTG (isopropyl β-D-thiogalactopyranoside) is added to 0.5mM, and the mixture is incubated for 2 additional hours. Bacteria are pelleted, resuspended in a 50mM Tris, 0.6mM EDTA, 0.375M NaCl buffer and digested by the addition of lysozyme (1mg/mL) for 30 minutes on ice. The cells are lysed by the addition of 0.2% NP-40 and brought to 1M NaCl.
After removal of the insoluble debris by centrifugation, the protein is precipitated by the addition of 3 volumes of saturated aqueous ammonium sulfate. The enzyme is pelleted, resuspended in RT buffer (50mM Tris pH 7.5, 1mM EDTA, 5mM DTT, 0.1% NP-40, 0.1M NaCI, and 50% glycerol), and stored at -70°C for further use.
The 2X concentrated stock reaction mixture is aliquoted and stored at -20°C. The mixture is stable and thawed for use in each assay. This enzyme assay has been adapted to a 96 well microtiter plate system, and has been previously described (6). Tris buffer (50 mM, pH 7.4), vehicle (solvent diluted to match the compound dilution), or compounds in vehicle are dispensed into 96-well microtiter plates (10µL/well; 3 wells/ compound). The HIV-1 RT enzyme is thawed, diluted in 50mM Tris pH 7.4 so that fifteen µL of diluted enzyme contain 0.001 Unit (one unit is that amount of enzyme to transform 1 micromole of substrate per minute at 25°C), and fifteen µL are dispensed per well. Twenty µL of 0.12-0.5M EDTA are added to the first three wells of the microtiter plate. EDTA chelates the Mg^++ present and prevents reverse transcription. This group serves as background polymerization which is subtracted from all other groups. Twenty-five ul of the 2X reaction mixture are added to all wells and the assay is allowed to incubate at room temperature for 60 minutes. The assay is terminated by precipitating the DNA in each well with 50µL of 10% trichloracetic acid (TCA) (10% w/v) in sodium pyrophosphate (1% w/v). The microtiter plate is incubated for 15 minutes at 4°C and the precipitate is fixed onto #30 glass fiber paper (Schleicher & Schuell) using a Skatron semi-automatic harvester. […]

For the next assay, the target named is T3, HIV-1 RT Y181C (Human immunodeficiency virus type 1 group M subtype B, UniProt P03367, Y780C).
T3 construct: Utilization of mutant RT eraymes (Y181C and Y181L, prepared by site-directed mutagenesis); made in house
The experiment in a line: Reverse Transcriptase (RT) Assay, Y181C mutant enzyme. As to conditions: 1 µM compound; for inhibition at 1 µM: read-out: Reverse Transciptase Assay % inhibition (1 µM) Y181C.
Description: as §1
The 2X concentrated stock reaction mixture is aliquoted and stored at -20°C. The mixture is stable and thawed for use in each assay. This enzyme assay has been adapted to a 96 well microtiter plate system, and has been previously described (6). Tris buffer (50 mM, pH 7.4), vehicle (solvent diluted to match the compound dilution), or compounds in vehicle are dispensed into 96-well microtiter plates (10µL/well; 3 wells/ compound). The HIV-1 RT enzyme is thawed, diluted in 50mM Tris pH 7.4 so that fifteen µL of diluted enzyme contain 0.001 Unit (one unit is that amount of enzyme to transform 1 micromole of substrate per minute at 25°C), and fifteen µL are dispensed per well. Twenty µL of 0.12-0.5M EDTA are added to the first three wells of the microtiter plate. EDTA chelates the Mg^++ present and prevents reverse transcription. This group serves as background polymerization which is subtracted from all other groups. Twenty-five ul of the 2X reaction mixture are added to all wells and the assay is allowed to incubate at room temperature for 60 minutes. The assay is terminated by precipitating the DNA in each well with 50µL of 10% trichloracetic acid (TCA) (10% w/v) in sodium pyrophosphate (1% w/v). The microtiter plate is incubated for 15 minutes at 4°C and the precipitate is fixed onto #30 glass fiber paper (Schleicher & Schuell) using a Skatron semi-automatic harvester. The filters are then washed with additional TCA (5%) containing sodium pyrophosphate (1%), rinsed with aqueous ethanol (70%), dried, and transferred to scintillation vials (6). Each vial receives 2 mL of scintillation cocktail and is counted in a Beckman beta counter. The calculation for percent inhibition is as follows: % inhibition =(CPM Mean Test Value - CPM Mean Control Value X100)/(CPM Mean Control Value) [formula]

For orientation: inhibition means the percentage by which the read-out fell short of the control. For `CCN1c2ncccc2C(=O)N(C)c2ccc(-c3cnn(C)c3)nc21` [Example 3, 5,11-Dihydro-11-ethyl-5-methyl-2-(1-methylpyrazol-4-yl)-6H-dipyrido[3,2-b:2',3'-e][1,4]-diazepin-6-one], at HIV-1 RT Y188L, the “Reverse Transciptase Assay % inhibition (1 µM) Y188L” value was determined as 24%. The inhibition at 1 µM in assay [1] is 63%; at HIV-1 RT Y181C, 36%.
In the same order, the values of `CCN1c2ncccc2C(=O)N(C)c2ccc(-c3c[nH]c(C(=O)O)c3)nc21` [Example 21, 2-(2-Carboxypyrrol-4-yl)-5,11-dihydro-11-ethyl-5-methyl-6H-dipyrido[3,2-b:2',3'-e][1,4]-diazepin-6-one] are 46%, 33% and 28%.
In the same order, the values of `CCN1c2ncccc2C(=O)N(C)c2ccc(-c3cnn(C(C)=O)c3)nc21` [Example 8, 2-(1-Acetylpyrazol-4-yl)-5,11-dihydro-11-ethyl-5-methyl-6H-dipyrido[3,2-b:2',3'-e][1,4] diazepin-6-one] are 80%, 96% and 80%.
For `CCN1c2ncccc2C(=O)N(C)c2ccc(-c3cc4cc(OC)ccc4[nH]3)nc21` [Example 27, 5,11-Dihydro-11-ethyl-2-(5-methoxyindol-2-yl)-5-methyl-6H-dipyrido[3,2-b:2',3'-e][1,4]-diazepin-6-one], in that order: 58%, 61% and 45%.
As to `CCN1c2ncccc2C(=O)N(C)c2ccc(-c3c[nH]c(C#N)c3)nc21` [Example 19, 2-(2-Cyanopyrrol-4-yl)-5,11-dihydro-11-ethyl-5-methyl-6H-dipyrido[3,2-b:2',3'-e][1,4]-diazepin-6-one], the “Reverse Transciptase Assay % inhibition (1 µM) Y188L” value at HIV-1 RT Y188L is 55%. Also, the inhibition at 1 µM in assay [1] was determined as 91%; on HIV-1 RT Y181C it was 75%.
In the same order, the values of `CCN1c2ncccc2C(=O)N(C)c2ccc(-c3cc[nH]n3)nc21` [Example 9, 5,11-Dihydro-11-ethyl-5-methyl-2-(3-pyrazolyl)-6H-dipyrido[3,2-b:2',3'-e][1,4]diazepin-6-one] are 20%, 67% and 67%.
For `CCN1c2ncccc2C(=O)N(C)c2ccc(-c3c[nH]c(C(C)=O)c3)nc21` [Example 17, 2-(2-Acetylpyrrol-4-yl)-5,11-dihydro-11-ethyl-5-methyl-6H-dipyrido[3,2-b:2',3'-e][1,4]-diazepin-6-one], the “Reverse Transciptase Assay % inhibition (1 µM) Y188L” value at HIV-1 RT Y188L turned out to be 27%. In addition, the inhibition at 1 µM in assay [1] turned out to be 78%; at HIV-1 RT Y181C, 62%.
In the same order, the values of `CCN1C(=O)c2cccnc2N(C)c2nc(-c3ccc[nH]3)ccc21` [Example 23, 5,11-Dihydro-5-ethyl-11-methyl-2-(2-pyrrolyl)-6H-dipyrido[3,2-b:2',3'-e][1,4]diazepin-6-one] are 47%, 58% and 37%.
Consider `CN1C(=O)c2cccnc2N(C)c2nc(-c3ccc[nH]3)ccc21` [Example 24, 5,11-Dihydro-5,11-dimethyl-2-(2-pyrrolyl)-6H-dipyrido[3,2-b:2',3'-e][1,4]diazepin-6-one], for which the “Reverse Transciptase Assay % inhibition (1 µM) Y188L” value at HIV-1 RT Y188L is reported as 18%. The inhibition at 1 µM in assay [1] was determined as 39%; on HIV-1 RT Y181C it was 50%.
For `CCN1c2ncccc2C(=O)N(C)c2ccc(-c3cc[nH]c3C#N)nc21` [Example 18, 2-(2-Cyanopyrrol-3-yl)-5,11-dihydro-11-ethyl-5-methyl-6H-dipyrido[3,2-b:2',3'-e][1,4]-diazepin-6-one], in that order: 57%, 87% and 82%.
For `CCN1c2ncccc2C(=O)N(C)c2ccc(-c3c[nH]nc3C)nc21` [Example 10, 5,11-Dihydro-11-ethyl-5-methyl-2-(3-methylpyrazol-4-yl)-6H-dipyrido[3,2-b:2',3'-e][1,4]-diazepin-6-one], at HIV-1 RT Y188L, the “Reverse Transciptase Assay % inhibition (1 µM) Y188L” value is recorded as 66%. Besides, the inhibition at 1 µM in assay [1] was found to be 94%; on HIV-1 RT Y181C, 73%.
In the same order, the values of `CCN1c2ncccc2C(=O)N(C)c2ccc(-c3cc[nH]c3C(C)=O)nc21` [Example 15, 2-(2-Acetylpyrrol-3-yl)-5,11-dihydro-11-ethyl-5-methyl-6H-dipyrido[3,2-b:2',3'-e][1,4]-diazepin-6-one] are 10%, 52% and 59%.
With “2-(1-Carbamylpyrazol-3-yl)-5,11-dihydro-11-ethyl-5-methyl-6H-dipyrido[3,2-b:2',3'-e][1,4]-diazepin-6-one [Example 7]”, the “Reverse Transciptase Assay % inhibition (1 µM) Y188L” value on HIV-1 RT Y188L was determined as 52%. In assay [1], the “Reverse Transciptase Assay % inhibition (1 µM) WT” value is recorded as 94%. Besides, at HIV-1 RT Y181C, the “Reverse Transciptase Assay % inhibition (1 µM) Y181C” value stood at 84%.
As to `CCN1c2ncccc2C(=O)N(C)c2ccc(-c3cccn3C)nc21` [Example 11, 5,11-Dihydro-11-ethyl-5-methyl-2-(1-methylpyrrol-2-yl)-6H-dipyrido[3,2-b:2',3'-e][1,4]-diazepin-6-one], the inhibition at 1 µM in assay [1] is 81%.
For the molecule `CCOC(=O)c1cc(-c2ccc3c(n2)N(CC)c2ncccc2C(=O)N3C)c[nH]1` [Example 16, 5,11-Dihydro-2-[2-(ethoxycarbonyl)pyrrol-4-yl]-11-ethyl-5-methyl-6H-dipyrido-[3,2-b:2',3'-e][1,4]diazepin-6-one], the inhibition at 1 µM in assay [1] was 83%; on HIV-1 RT Y181C, 74%.
